Results on 3 compounds are retold here after PMC10528299, “Targeting FAK/PYK2 with SJP1602 for Anti-Tumor Activity in Triple-Negative Breast Cancer” (Current Issues in Molecular Biology, 2023).

Common to all, as to assay: Eurofins kinase profiling
What all share (assay type): biochemical

One assay addresses T1, Fms(h) (Homo sapiens, UniProt P07333).
T1 construct: purchased Eurofins KinaseProfiler
The conditions noted are these: read-out: residual kinase activity Fms(h). In outline:
(§1)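 Each kinase is incubated with compound (1 µM). Activity is then determined radiometrically from transfer of labeled phosphate.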

A further assay has as its target T2, c-RAF(h) (Homo sapiens, UniProt P04049).
T2 construct: purchased Eurofins KinaseProfiler
To be noted: read-out: residual kinase activity c-RAF(h). An outline of the steps: as §1

The target of a further assay is T3, PKBα(h) (Homo sapiens, UniProt P31749).
T3 construct: purchased Eurofins KinaseProfiler
T3 sequence (P31749 whole entry): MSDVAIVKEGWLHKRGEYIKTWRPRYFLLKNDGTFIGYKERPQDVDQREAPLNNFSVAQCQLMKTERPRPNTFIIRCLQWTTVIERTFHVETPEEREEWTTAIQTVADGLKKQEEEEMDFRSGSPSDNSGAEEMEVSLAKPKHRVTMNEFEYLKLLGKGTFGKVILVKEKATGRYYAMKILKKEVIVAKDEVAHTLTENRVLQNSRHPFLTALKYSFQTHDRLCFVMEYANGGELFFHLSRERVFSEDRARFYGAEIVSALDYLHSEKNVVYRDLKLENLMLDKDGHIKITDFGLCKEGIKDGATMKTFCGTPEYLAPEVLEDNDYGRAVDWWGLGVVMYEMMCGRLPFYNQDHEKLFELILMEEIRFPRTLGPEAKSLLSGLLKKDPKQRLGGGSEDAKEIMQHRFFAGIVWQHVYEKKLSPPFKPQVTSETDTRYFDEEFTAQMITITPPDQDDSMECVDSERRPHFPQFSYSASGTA
To be noted: read-out: residual kinase activity PKBα(h). An outline of the steps:
as §1

The next assay deals with T4, Ron(h) (Homo sapiens, UniProt Q04912).
T4 construct: purchased Eurofins KinaseProfiler
T4 sequence (Q04912 25-1400): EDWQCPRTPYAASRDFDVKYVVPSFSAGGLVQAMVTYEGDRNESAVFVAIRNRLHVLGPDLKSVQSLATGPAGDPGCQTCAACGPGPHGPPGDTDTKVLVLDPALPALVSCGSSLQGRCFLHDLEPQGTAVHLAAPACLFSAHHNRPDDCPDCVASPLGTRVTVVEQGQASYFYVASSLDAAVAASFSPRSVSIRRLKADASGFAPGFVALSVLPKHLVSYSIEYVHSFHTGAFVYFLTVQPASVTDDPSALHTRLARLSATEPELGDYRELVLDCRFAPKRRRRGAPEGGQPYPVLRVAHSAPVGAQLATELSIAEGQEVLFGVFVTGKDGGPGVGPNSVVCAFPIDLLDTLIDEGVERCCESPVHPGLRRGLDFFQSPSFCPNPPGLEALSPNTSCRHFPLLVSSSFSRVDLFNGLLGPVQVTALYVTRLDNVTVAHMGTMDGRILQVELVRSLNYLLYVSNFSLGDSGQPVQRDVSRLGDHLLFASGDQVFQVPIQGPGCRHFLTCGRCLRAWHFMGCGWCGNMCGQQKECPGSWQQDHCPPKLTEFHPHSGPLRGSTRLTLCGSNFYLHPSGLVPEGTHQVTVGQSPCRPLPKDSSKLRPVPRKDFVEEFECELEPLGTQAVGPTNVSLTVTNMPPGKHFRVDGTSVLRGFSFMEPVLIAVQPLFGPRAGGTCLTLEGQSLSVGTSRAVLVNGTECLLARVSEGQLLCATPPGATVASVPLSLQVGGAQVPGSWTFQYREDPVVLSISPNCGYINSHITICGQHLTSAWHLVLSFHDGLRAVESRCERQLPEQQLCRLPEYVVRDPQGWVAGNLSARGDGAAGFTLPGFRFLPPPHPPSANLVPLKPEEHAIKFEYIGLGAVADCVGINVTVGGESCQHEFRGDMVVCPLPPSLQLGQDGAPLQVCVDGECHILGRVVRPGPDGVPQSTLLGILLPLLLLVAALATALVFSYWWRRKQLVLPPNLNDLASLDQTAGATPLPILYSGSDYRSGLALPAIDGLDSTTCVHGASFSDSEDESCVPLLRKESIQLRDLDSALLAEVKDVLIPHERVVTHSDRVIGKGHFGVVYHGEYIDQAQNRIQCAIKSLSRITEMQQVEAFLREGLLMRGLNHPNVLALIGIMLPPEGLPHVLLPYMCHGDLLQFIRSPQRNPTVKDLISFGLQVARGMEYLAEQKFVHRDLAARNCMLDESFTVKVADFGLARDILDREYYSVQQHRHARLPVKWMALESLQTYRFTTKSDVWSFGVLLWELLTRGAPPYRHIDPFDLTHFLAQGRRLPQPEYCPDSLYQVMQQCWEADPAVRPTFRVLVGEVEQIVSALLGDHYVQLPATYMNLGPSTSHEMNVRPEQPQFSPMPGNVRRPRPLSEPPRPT
The conditions noted are these: read-out: residual kinase activity Ron(h). In outline: as §1

Another assay addresses T5, IGF-1R(h), activated (Homo sapiens, UniProt P08069).
T5 construct: purchased Eurofins KinaseProfiler
The conditions noted are these: 1 µM. An outline of the steps: as §1

The target in a further assay is T6, PKD2(h) (Homo sapiens, UniProt Q9BZL6).
T6 construct: purchased Eurofins KinaseProfiler
T6 sequence (Q9BZL6 1-878): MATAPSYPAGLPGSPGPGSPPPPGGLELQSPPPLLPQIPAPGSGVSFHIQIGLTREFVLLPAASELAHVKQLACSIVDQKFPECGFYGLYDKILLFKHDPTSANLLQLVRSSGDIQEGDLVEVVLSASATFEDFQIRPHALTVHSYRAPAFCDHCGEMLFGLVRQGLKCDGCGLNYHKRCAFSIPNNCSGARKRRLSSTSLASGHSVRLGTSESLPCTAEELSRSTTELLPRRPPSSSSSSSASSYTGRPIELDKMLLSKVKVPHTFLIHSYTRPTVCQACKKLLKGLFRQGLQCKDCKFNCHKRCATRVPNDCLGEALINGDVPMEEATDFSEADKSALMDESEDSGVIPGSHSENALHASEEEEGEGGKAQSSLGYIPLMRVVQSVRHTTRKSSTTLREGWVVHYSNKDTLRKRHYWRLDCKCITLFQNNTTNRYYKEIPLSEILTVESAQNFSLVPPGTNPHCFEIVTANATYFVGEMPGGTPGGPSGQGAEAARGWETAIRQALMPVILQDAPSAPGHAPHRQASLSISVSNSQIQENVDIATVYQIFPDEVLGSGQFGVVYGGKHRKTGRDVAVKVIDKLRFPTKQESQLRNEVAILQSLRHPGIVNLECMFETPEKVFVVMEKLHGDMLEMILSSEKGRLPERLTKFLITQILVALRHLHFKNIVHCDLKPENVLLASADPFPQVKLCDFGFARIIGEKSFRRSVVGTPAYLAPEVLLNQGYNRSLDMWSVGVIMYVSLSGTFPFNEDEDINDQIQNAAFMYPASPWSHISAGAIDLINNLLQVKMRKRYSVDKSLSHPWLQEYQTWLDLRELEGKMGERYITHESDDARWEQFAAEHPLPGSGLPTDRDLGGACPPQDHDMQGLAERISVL
To be noted: read-out: residual kinase activity PKD2(h). An outline of the steps:
as §1

In a further assay the target is T7, Mer(h) (Homo sapiens, UniProt Q12866).
T7 construct: purchased Eurofins KinaseProfiler
T7 sequence (Q12866 21-999): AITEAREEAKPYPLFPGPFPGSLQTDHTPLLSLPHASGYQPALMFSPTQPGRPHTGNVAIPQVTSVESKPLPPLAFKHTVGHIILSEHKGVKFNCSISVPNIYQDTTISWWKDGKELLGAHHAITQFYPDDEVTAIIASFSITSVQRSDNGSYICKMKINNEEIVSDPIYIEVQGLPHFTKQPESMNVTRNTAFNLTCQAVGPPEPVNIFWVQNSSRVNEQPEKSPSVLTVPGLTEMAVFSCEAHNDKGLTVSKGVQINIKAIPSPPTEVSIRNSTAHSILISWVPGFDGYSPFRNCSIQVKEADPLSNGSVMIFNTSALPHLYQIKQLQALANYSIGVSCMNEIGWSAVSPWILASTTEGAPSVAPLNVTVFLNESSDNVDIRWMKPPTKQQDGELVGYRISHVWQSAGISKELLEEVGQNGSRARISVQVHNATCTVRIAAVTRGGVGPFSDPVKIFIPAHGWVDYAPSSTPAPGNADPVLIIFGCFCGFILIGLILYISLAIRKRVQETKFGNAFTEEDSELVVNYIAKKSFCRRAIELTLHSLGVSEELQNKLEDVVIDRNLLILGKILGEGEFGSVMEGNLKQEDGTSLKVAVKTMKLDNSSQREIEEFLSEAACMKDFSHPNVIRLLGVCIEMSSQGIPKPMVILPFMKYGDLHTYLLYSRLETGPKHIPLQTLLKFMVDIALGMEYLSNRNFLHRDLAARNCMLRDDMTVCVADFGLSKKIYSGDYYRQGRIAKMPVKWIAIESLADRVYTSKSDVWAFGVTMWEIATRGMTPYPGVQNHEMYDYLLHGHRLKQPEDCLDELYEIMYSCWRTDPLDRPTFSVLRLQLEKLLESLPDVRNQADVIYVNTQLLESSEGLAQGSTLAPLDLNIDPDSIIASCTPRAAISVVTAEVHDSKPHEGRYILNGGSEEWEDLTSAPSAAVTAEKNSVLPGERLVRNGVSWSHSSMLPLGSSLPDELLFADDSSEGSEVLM
To be noted: read-out: residual kinase activity Mer(h). An outline of the steps: as §1

T1 sequence (P07333 20-972): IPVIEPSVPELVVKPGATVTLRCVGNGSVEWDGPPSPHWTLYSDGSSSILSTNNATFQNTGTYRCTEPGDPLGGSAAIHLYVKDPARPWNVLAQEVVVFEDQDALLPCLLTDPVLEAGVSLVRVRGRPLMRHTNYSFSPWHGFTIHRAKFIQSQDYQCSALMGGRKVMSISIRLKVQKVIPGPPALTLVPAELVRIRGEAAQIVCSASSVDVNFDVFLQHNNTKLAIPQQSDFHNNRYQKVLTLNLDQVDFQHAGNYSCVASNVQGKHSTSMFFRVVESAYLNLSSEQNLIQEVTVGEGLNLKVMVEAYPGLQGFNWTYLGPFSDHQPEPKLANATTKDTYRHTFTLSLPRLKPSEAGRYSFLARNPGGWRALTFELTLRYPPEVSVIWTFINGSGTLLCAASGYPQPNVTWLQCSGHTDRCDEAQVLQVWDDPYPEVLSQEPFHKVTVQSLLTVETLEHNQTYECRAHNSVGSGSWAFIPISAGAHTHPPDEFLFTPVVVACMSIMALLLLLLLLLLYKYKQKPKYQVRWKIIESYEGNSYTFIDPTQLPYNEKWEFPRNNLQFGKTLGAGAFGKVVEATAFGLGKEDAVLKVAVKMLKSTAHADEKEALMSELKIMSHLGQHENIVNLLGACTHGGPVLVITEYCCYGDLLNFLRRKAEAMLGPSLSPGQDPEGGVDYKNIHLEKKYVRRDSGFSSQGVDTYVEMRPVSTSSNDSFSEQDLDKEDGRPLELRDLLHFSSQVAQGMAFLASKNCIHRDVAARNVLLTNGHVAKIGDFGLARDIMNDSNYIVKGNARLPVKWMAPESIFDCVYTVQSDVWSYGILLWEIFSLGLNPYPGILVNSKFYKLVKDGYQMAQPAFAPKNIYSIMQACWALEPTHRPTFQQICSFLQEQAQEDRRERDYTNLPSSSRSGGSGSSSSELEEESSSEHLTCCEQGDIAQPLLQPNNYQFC
T2 sequence (P04049 whole entry): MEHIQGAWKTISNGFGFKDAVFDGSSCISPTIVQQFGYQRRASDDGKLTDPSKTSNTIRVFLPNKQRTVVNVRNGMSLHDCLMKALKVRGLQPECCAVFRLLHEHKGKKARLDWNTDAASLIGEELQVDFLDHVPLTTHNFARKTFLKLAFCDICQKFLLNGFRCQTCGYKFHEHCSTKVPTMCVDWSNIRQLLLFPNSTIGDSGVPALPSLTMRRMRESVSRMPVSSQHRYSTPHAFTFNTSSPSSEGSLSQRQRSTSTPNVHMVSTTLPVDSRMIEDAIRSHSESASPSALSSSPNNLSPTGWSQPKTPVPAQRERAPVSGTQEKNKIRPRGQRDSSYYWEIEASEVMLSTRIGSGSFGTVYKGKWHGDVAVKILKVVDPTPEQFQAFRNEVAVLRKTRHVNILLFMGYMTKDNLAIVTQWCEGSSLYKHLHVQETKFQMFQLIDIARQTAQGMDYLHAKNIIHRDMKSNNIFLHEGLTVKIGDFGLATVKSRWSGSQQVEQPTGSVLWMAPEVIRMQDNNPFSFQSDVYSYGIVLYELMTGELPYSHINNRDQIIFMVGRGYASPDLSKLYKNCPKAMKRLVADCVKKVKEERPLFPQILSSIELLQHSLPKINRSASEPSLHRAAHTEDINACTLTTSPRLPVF
T5 sequence (P08069 31-1367): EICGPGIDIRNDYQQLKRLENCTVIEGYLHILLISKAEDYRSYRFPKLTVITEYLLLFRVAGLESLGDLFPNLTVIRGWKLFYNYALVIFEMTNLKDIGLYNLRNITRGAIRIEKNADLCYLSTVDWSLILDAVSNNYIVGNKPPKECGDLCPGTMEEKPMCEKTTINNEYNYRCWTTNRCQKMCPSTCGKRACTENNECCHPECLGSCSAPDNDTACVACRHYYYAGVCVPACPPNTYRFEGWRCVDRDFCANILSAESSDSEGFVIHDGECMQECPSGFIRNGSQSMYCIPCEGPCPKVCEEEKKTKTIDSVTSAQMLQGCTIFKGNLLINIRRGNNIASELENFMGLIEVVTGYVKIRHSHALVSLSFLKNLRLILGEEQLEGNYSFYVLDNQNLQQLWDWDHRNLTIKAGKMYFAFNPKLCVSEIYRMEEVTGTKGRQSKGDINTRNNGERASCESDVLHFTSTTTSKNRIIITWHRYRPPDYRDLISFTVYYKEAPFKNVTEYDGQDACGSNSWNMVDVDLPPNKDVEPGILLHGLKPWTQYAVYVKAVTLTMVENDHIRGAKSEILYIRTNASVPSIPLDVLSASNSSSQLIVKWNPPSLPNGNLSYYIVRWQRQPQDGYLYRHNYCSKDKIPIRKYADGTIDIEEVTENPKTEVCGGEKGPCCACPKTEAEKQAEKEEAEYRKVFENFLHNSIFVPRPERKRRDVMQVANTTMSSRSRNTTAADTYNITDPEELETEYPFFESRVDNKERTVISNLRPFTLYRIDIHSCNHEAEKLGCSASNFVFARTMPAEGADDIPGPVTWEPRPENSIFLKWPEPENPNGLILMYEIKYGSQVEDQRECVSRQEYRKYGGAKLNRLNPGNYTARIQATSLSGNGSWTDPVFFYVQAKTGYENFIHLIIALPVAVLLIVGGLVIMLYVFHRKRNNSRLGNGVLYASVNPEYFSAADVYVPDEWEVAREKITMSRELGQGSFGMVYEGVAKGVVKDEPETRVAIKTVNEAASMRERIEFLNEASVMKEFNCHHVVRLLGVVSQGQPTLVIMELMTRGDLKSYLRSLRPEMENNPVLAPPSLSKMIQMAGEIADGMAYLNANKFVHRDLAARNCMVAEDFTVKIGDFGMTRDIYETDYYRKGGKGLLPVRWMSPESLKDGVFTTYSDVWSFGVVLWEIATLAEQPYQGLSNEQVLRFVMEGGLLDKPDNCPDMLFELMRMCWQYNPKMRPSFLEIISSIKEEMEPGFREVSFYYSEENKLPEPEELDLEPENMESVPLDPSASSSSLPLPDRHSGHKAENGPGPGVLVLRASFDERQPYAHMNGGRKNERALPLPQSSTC

For `CONC(=O)c1ccccc1Nc1cc(Nc2cc(C)nn2C(C)C)ncc1Cl` [GSK2256098], the remaining activity at 1 µM at Fms(h) is 88%; at c-RAF(h) it was 72%; on PKBα(h), 105%; at Ron(h), 91%; on PKD2(h), 90%; on Mer(h), 97%. Also, at IGF-1R(h), activated, the “residual kinase activity IGF-1R(h), activated” value was found to be 108.

Take `CNC(=O)c1cccc(C)c1Nc1nc(Nc2ccc(N3CCN(C4C5CC6CC4CC(O)(C6)C5)CC3)cc2OC)ncc1C(F)(F)F` (stereo not drawn) [SJP1602, 2-((2-((4-(4-((2s,5r)-5-hydroxyadamantan-2-yl)piperazin-1-yl)-2-methoxyphenyl)amino)-5-(trifluoromethyl)pyrimidin-4-yl)amino)-N,3-dimethylbenzamide]: the remaining activity at 1 µM at Fms(h) turned out to be 85%; on c-RAF(h), 90%; at PKBα(h) it was 100%; on Ron(h) it was 75%; at PKD2(h), 116%; at Mer(h) it was 60%. The “residual kinase activity IGF-1R(h), activated” value on IGF-1R(h), activated is on record as 105.

Consider `CNC(=O)c1ccc(Nc2ncc(C(F)(F)F)c(NCc3nccnc3N(C)S(C)(=O)=O)n2)cc1` [VS-6063, Defactinib], for which the remaining activity at 1 µM is 67% at Fms(h); 80% on c-RAF(h); 101% on PKBα(h); 72% on Ron(h); 116% at PKD2(h); 7% at Mer(h). Besides, the “residual kinase activity IGF-1R(h), activated” value on IGF-1R(h), activated worked out at 74.
